From patent US20110190249A1, “THERAPEUTIC METHODS AND USES OF SAPOGENINS AND THEIR DERIVATIVES” (PHYTOPHARM PLC, priority 2002, published 2011)
Marks after values point to notes of the source that are not given here.

Assays:
[1] = system: rat primary spinal motor neurones; experiment: Glutamate-induced neurodegeneration in spinal motor neurones (LDH); type: cell-based; details: 300 nM for 48 h after glutamate 4 microM 10 min; control 100 ± 1
Protocol: The objective of this study was to examine the effects of sarsasapogenin and smilagenin on the survival of rat primary spinal motor neurones exposed to glutamate, which is known to induce neurodegeneration in this model of motor neurodegeneration.
Rat motor neurones were prepared according to the method described by (Martinou et al, Neuron, 8, 737-744, 1992). On day 10, medium was removed and the cultures were exposed to glutamate (4 microM) for 10 min at 37° C. in defined medium. After the glutamate exposure, cultures were washed with Dulbecco modified Eagle medium at 37° C. then placed in fresh culture medium containing test compounds. After 48 h, the extent of spinal motor neurone degeneration was determined by measuring the amount of lactate dehydrogenase (LDH) released into the culture medium as above.

[2] = system: rat primary cortical neurones; experiment: Neurite outgrowth in rat primary cortical neurones; type: cell-based; details: for Number of neurones displaying neurites, Mean ± s.e.m (%): control 47 ± 2; for Neurite length measured using optical micrometry, Mean ± s.e.m (%): control 100 ± 4
From the text: Neurodegenerative disorders are characterised by a progressive loss of neurones and degradation of neuronal processes (neurites). Agents that induce neurite outgrowth may promote the formation of new connections between neurones and ameliorate the symptoms of neurodegenerative conditions (Katzman et al, Faseb J., 5, 278-286, 1991).

[3] = system: rat primary cortical neurones; experiment: Reversal of glutamate-induced neurodegeneration (LDH), treatment after glutamate exposure; type: cell-based; details: LDH after 24 h, control = 100
Protocol: (§1) Neuronal cell survival was evaluated by measuring lactate dehydrogenase (LDH) activity released in the media 24 h after test compound treatment or glutamate+test compound exposure, using the CytoTox 96 non-radioactive kit and quantitated by measuring wavelength absorbance at 450 nm.
As above mentioned, exposure of rat primary cortical cultures to glutamate (100 μM; 10 min) caused an increase in lactate dehydrogenase (LDH) activity measured after 24 h, indicating a significant neurodegeneration.

[4] = system: rat mesencephalic dopaminergic neurones; experiment: Treatment of dopaminergic neurones after MPP+ exposure (survival, neurites); type: cell-based; details: treatment 0.03 nM; MPP+ 2 μM; MPP+ alone 76 ± 4
From the text: Smilagenin and sarsasapogenin also reverse the neurodegeneration caused by exposure to the neurotoxin 1-methyl-4-phenylpyridinium (MPP^+) in rat mesencephalic dopaminergic neurones; a model of Parkinson's disease in vitro.
Glial cell line-derived neurotrophic factor (GDNF) and brain-derived neurotrophic factor (BDNF), molecules that are involved in neuronal growth, and 17β-oestradiol were used as positive controls. Treatment with smilagenin and sarsasapogenin produced a significant increase in the neuronal survival compared to neurones exposed to MPP^+ alone (Table 8).
Exposure to MPP^+ caused not only a significant decrease in dopaminergic number but also in the percentage of neurites.

[5] = system: muscarinic acetylcholine receptor; experiment: Brain M receptor density (3H-QNB) in amyloid β + ibotenic acid rat model; type: in vivo; details: 18 mg/kg/day gastric tube, two months; model 713 ± 48, control 859 ± 101
Protocol: (§2) An in vivo model of Alzheimer's disease was used to model neurodegeneration. In this model the neurotoxic agents (amyloid β and ibotenic acid) are injected into the brain of the rat. This leads to neuronal loss, receptor loss and cognitive impairment. […] In addition the co-injection of amyloid β with a small amount of ibotenic acid into the rat hippocampus synergistically produces neuronal loss with infiltration of glial cells not only adjacent but also far from the injected site (Morimoto et al., 1998: Neuroscience, 84, 479-487).
(§3) Our studies used the method of Morimoto (Morimoto et al., 1998: Neuroscience, 84, 479-487) with some modifications (unilateral instead of bilateral injection). Three months old, Sprague Dawley rats, were randomly divided into different groups. Injection of amyloid β1-40 and ibotenic acid (both from Sigma) was accomplished by means of a stereotaxic instrument (Stoelting Co.) and the coordinates were AP=−0.5 mm […], L=−2.8 mm […], H=−7.0 mm (ventral to dura). The dose for each rat was amyloid β1-40 (4 μg) and ibotenic acid (1 μg) in 1 μl of saline. The injection was completed in 20 min, and the needle was withdrawn 10 min later. Then the skin was sutured.
(§4) The 8 groups were: • Operated control injected with normal saline (control) • Model (control injected with amyloid β+ibotenic acid) • Model+Episarsasapogenin cathylate (18 mg/kg/day)* • Model+Sarsasapogenin cathylate (18 mg/kg/day)* • Model+Episarsasapogenin ethylsuccinate (18 mg/kg/day) (comparison) • Model+Episarsasapogenin (18 mg/kg/day)* • Model+Epismilagenin (18 mg/kg/day)* • Model+Diosgenin (i.e. negative control, 18 mg/kg/day)
(§5) Episarsasapogenin cathylate, sarsasapogenin cathylate, episarsasapogenin ethylsuccinate (comparison compound), episarsasapogenin, epismilagenin and diosgenin (all at a dosage of 18 mg/kg/day) were administered to animals as stable suspensions in CMC—Na (0.5%) once daily through a gastric tube. The control and the model group were given the same volume of CMC—Na (0.5%) once daily. The drugs and vehicles were given for a period of two months, starting 20 days before operation.
Muscarinic acetylcholine receptor density was assessed. The brain samples were homogenised, centrifuged, and the pellet of centrifugation at 27000×g was re-homogenised and used for measurement. The concentration of ^3H-QNB was chosen at the saturation range. After incubation and separation, the bound portion was measured by liquid scintillation counter.

[6] = system: Sprague Dawley rats injected with amyloid β1-40 and ibotenic acid; experiment: Step-through test in amyloid β + ibotenic acid rat model; type: in vivo; details: 18 mg/kg/day gastric tube, two months; errors in 5 min; model 4.00 ± 2.40, control 0.60 ± 0.70
Protocol: as §2, §3, §4, §5
Step-Through Test: learning and memory. The effect of test compounds on learning and memory was assessed using the step-through test. A 60×15×15 cm box, divided into 2 equally sized rooms, one dark room with copper rod base, which was electrically charged (40 V ac) when in use, while the other was a light room but not electrically charged. Between the two rooms there is an opening (hole) for the rat to go through. The experiment is carried out for each rat on two consecutive days. The first day is for training; when the rat is adapted in the box for the first 3 min, then put in the light room, with its back toward the hole, and the copper rods of the dark room are charged for 5 min. The second day is for testing, when the number of crosses in 5 min are recorded. Improvements in memory are signalled by a reduction in the number of crosses.

[7] = system: rat primary cortical neurones; experiment: Prevention of glutamate-induced neurodegeneration (LDH release), pre-treatment; type: cell-based; details: 30 nM, given 24 h before glutamate; LDH 24 h after glutamate; control = 100
Protocol: The objective of this study was to examine the effects of sarsasapogenin, episarsasapogenin cathylate, episarsasapogenin, epismilagenin and smilagenin on the survival of rat primary cortical neurones exposed to glutamate, which is known to induce neuro degeneration.
Rat cortical neurones were cultured for 10 days; at day 10 the medium was changed to a serum-free defined medium. On day 12, 24 hours before glutamate exposure, cultures were washed and medium was replaced with fresh medium containing positive control (β-oestradiol), test compounds (sarsasapogenin, episarsasapogenin cathylate, episarsasapogenin, epismilagenin and smilagenin) or vehicle control (DMSO, 0.25%) or diosgenin as negative control.
On day 13, cultures were exposed to glutamate. After the incubation period, the cultures were washed with and placed in fresh medium, supplemented with relevant compounds or vehicle to evaluate their protective effects, 24 h after glutamate exposure.
as §1

[8] = system: muscarinic acetylcholine receptor; experiment: Brain muscarinic acetylcholine receptor density in aged rats (dual-site competitive ligand binding); type: in vivo, rat; details: 18 mg kg−1 day−1 oral, 2-3 months
Protocol: (§6) Aged Sprague-Dawley rats aged were divided into different groups, one control and groups treated for 2-3 months with either sarsasapogenin, episarsasapogenin cathylate or smilagenin (18 mg kg^−1 day^−1, n=10). A control group (n=14) of untreated young rats was also included in the study. The daily dose of drug was mixed in a minimum amount of food and was administered every morning separately to each rat.
Muscarinic acetylcholine receptor density in the brain was measured. Tissue was prepared as follows: brains were removed quickly after decapitation, frozen in dry ice, and transferred to a freezer. The brains were homogenised and the pellet was finally suspended in buffer.
The dual-site competitive ligand binding assay was used to measure muscarinic acetylcholine receptor density.

aged Sprague-Dawley rats = experiment: Y-maze learning and memory test in aged rats; type: in vivo, rat; details: 18 mg kg−1 day−1 oral in food, 3 months
Protocol: as §6
A Y-maze apparatus was used for the learning and memory test. On the floor of each arm of the Y-maze is an array of copper rods to which electric current is applied whenever needed, with adjustable voltage. Each arm is 45 cm long and has a 15 W lamp at the end, which is turned on when needed. After 3 months drug administration, each rat was trained for 7 consecutive days, as follows. For each training session, the rat was put into one arm of the Y-maze, after two minutes rest, an electrical current was applied to the copper rods and the lamp of the clockwise arm was illuminated to indicate the non-stimulation area. If the rat went into that arm, one correct response was recorded, otherwise, one wrong response was recorded: This stimulation-response test was repeated 20 times each day, with a pause of 5 sec between each two consecutive tests. The number of correct responses following the twenty tests on the seventh day was used to express learning ability, (the higher the number the better the learning ability). The rats were then left resting for 30 days and the procedure was repeated once more. The number of correct responses of the 20 tests after the 30 day rest period was used to represent the memory ability

[9] = 30 nM after glutamate 100 μM 10 min

| SMILES | M receptor density [5] | Learning and memory Step through test Error No [6] | Prevention of glutamate-induced neurodegeneration, Mean ± s.e.m (%) [7] | also measured |
| --- | --- | --- | --- | --- |
| C[C@]12CC[C@@H]3c4ccc(O)cc4CC[C@H]3[C@@H]1CC[C@@H]2O [17β-oestradiol, reference compound] |  |  |  | Glutamate-induced neurodegeneration in spinal motor neurones, Mean ± s.e.m (%) [1]: 116 + 6%; Number of neurones displaying neurites, Mean ± s.e.m (%) ([2]; 0.3 pM): 48 ± 2%; Neurite length measured using optical micrometry, Mean ± s.e.m (%) ([2]; 0.3 pM): 154 ± 5%; Number of neurones displaying neurites, Mean ± s.e.m (%) ([2]; 3 pM): 60 ± 2%; Neurite length measured using optical micrometry, Mean ± s.e.m (%) ([2]; 3 pM): 163 ± 4%; Number of neurones displaying neurites, Mean ± s.e.m (%) ([2]; 30 pM): 59 ± 2%; Cortical neurones previously exposed to glutamate, Mean ± s.e.m (%) ([3]; 3 nM after glutamate 100 μM 10 min): 69 ± 2%; Cortical neurones previously exposed to glutamate, Mean ± s.e.m (%) [3, 9]: 75 ± 5%; Dopaminergic neurones after MPP+ exposure (survival), Mean ± s.e.m (%) [4]: 106 + 5% |
| CCOC(=O)CCC(=O)OC1CCC2(C)C(CCC3C2CCC2(C)C3CC3OC4(CCC(C)CO4)C(C)C32)C1 (stereo not shown) [Episarsasapogenin ethylsuccinate, episarsasapogenin ethylsuccinate, reference compound] | 774 ± 79 fmol/mg/protein | 3.73 ± 1.35 |  |  |
| C[C@@H]1CC[C@@]2(OC1)O[C@H]1C[C@H]3[C@@H]4CC=C5C[C@@H](O)CC[C@]5(C)[C@H]4CC[C@]3(C)[C@H]1[C@@H]2C [diosgenin, reference compound] | 770 ± 68 fmol/mg/protein | 3.75 ± 1.49 | 72 ± 4% | Cortical neurones previously exposed to glutamate, Mean ± s.e.m (%) [3, 9]: 49 ± 6% |
| CCOC(=O)O[C@@H]1CC[C@@]2(C)[C@H](CC[C@@H]3[C@@H]2CC[C@]2(C)[C@@H]4[C@H](C[C@@H]32)O[C@]2(CC[C@H](C)CO2)[C@H]4C)C1 [episarsasapogenin cathylate] | 877 ± 89* fmol/mg/protein | 1.36 ± 0.92* | 74 ± 3% | Muscarinic acetylcholine receptor density in brain [8]: significantly restored; Learning and memory ability (Y-maze) (aged Sprague-Dawley rats): restored the learning and memory ability |
| C[C@H]1CC[C@@]2(OC1)O[C@H]1C[C@H]3[C@@H]4CC[C@@H]5C[C@H](O)CC[C@]5(C)[C@H]4CC[C@]3(C)[C@H]1[C@@H]2C [episarsasapogenin] | 869 ± 104* fmol/mg/protein | 1.50 ± 1.18* | 88 ± 3% |  |
| C[C@@H]1CC[C@@]2(OC1)O[C@H]1C[C@H]3[C@@H]4CC[C@@H]5C[C@H](O)CC[C@]5(C)[C@H]4CC[C@]3(C)[C@H]1[C@@H]2C [epismilagenin] | 877 ± 90* fmol/mg/protein | 1.73 ± 0.91* | 79 ± 2% |  |
| CCOC(=O)OC1CCC2(C)C(CCC3C2CCC2(C)C3CC3OC4(CCC(C)CO4)C(C)C32)C1 (stereo not shown) [sarsasapogenin cathylate] | 916 ± 158* fmol/mg/protein | 1.36 ± 1.03* |  |  |
